Entries after “also recorded” stand apart in the source; their conditions may differ.
What was measured:
ATDC5 micromasses [1] = assay: Phased dosing of CDK8i on ATDC5 micromasses (alcian blue / alizarin red); format: cell-based, mouse; conditions: 1 μM, phased dosing 2, 4, 6, 9, 11, 14 days, read day 14; all timepoints
Protocol: To understand the longevity of the CDK8i effect observed with BI1347 and MSC2530818, ATDC5 micromasses were exposed to a phased dosing regimen. This consisted of treating standard 10 μl ATDC5 micromasses with differentiation media containing 1 μM of BI1347 or MSC2530818 for 2 days before switching to control differentiation media for the remaining culture period ending on day 14 of differentiation. This was repeated for 4, 6, 9, 11 and 14 days of treatment. On day 14, cells were fixed and stained with alizarin red or alcian blue as previously described.

ATDC5 micromass [2] = assay: Dose response of CDK8 inhibitors on ATDC5 micromass (alizarin red / alcian blue); format: cell-based, mouse; conditions: all concentrations (10 μM down to 0.1 nM), day 14
Protocol: (§1) In brief, 2 μl micromasses were seeded in a 96-well plate and cultured as previous in the presence of BI1347 and additional CDK8i compounds namely BRD6989, AS2863619, SEL120-34A, MSC2530818 and CCT251545. Compound concentrations were titrated 10-fold from 10 μM down to 0.1 nM. On day 14 micromasses were fixed, stained and subsequently leached to allow for dose response analysis to be conducted.
as §1, with “seeded on” for “seeded in”, “additional Mediator kinase inhibitor” for “additional CDK8i”

ATDC5 micromass [3] = assay: ATDC5 micromass treated with CDK8i: qPCR gene expression and morphology; format: cell-based, mouse; conditions: 1 μM
Protocol: ATDC5 and primary equine chondrocytes were cultured in micromasses and treated with a CDK8i to determine effects on gene expression during chondrogenic differentiation.
In more detail, for ATDC5 cells, 2.7×10^5 cells were seeded in a 10 μl droplet onto a 24-well plate and cultured in differentiation media supplemented with CDK8i for 7 days before switching to mineralisation media supplemented with CDK8i for a further 7 days to induce hypertrophic differentiation as previous. The CDK8i was either 1 μM BI1347 or 100 nM MSC2530818.
On days 7 and 14 DMSO control and BI1347/MSC2530818 treated ATDC5 micromasses were lysed in triplicate and RNA extracted using Reliaprep RNA miniprep system (Promega) before cDNA synthesis using High-capacity reverse transcriptase kit (Applied BioScience). Quantitative PCR (qPCR) analysis was carried out using 10 ng cDNA in iTaq mastermix (BioRad) according to manufacturer's instructions. Primer sequences for qPCR reactions are shown in Table 1. ΔCt values of genes expressed were normalised to reference housekeeper genes and subsequently used to generate relative expression. Significance was observed by conducting unpaired T-test with Welch correction.

[4] = test system: MC3T3 (subclone 14) osteoblast-like cells; assay: MC3T3 osteoblast-like cell mineralisation (alizarin red); format: cell-based
Protocol: 2×10^4 MC3T3 (subclone 14) osteoblast-like cells were seeded on a 24-well plate and cultured for 2 days in osteoblast growth media (Alpha-MEM supplemented with 10% FBS, 1% Ab/Am) before induction of differentiation with osteoblast differentiation media (Alpha-MEM, 10% FBS, 1% Ab/Am, 50 μg/ml ascorbic acid, 5 mM β-glycerophosphate) in the presence of 1 μM BI1347 or DMSO, with media changes every 2-3 days.
Another MC3T3 differentiation method was also carried out with MSC2530818 treatment. Briefly, MC3T3 cells were seeded as above and differentiated for 7 days in osteogenic induction media (Alpha-MEM, 10% FBS, 1% Ab/Am, 50 μg/ml ascorbic acid) with DMSO or 100 nM MSC2530818, before switching to osteogenic induction media with 2 mM β-glycerophosphate in the presence of 100 nM MSC2530818 or DMSO.
Cells were fixed in 95% ice-cold methanol and stained with 1% Alizarin Red on day 7, 10 and 14 of culture for BI1347 and on day 14 only for MSC2530818 treated cells to observe effects of compounds on mineralization compared to DMSO control. Alizarin red stain was leached and measured as previously described.

[5] = test system: monolayer culture of ATDC5 cells; assay: Monolayer culture of ATDC5 cells, GAG deposition; format: cell-based, mouse; conditions: monolayer instead of micromass
ATDC5 micromasses [6] = assay: Dose response of CDK8i on genes of interest in hypertrophic ATDC5 micromasses; format: cell-based, mouse; conditions: for gene expression of OA protective genes (TIMP4, MATN3, SMOC2, CNMD) / gene expression of hypertrophic/mineralised matrix marker IBSP: 1 μM, 100 nM or 10 nM, 14 day hypertrophic differentiation, vs DMSO; for dose response in gene expression: efficacy down to: 14 days differentiation to hypertrophy
Protocol: To confirm that the gene expression profile observed in the day 7 RNAseq dataset was reproducible in hypertrophic cells, we selected genes of interest from the RNAseq dataset and analysed gene expression analysis on hypertrophic ATDC5 cells. 2.7×10^5 ATDC5 cells were cultured in 10 μl micromasses in the presence of BI1347 and MSC2530818 at concentrations 1 μM, 100 nM, 10 nM and DMSO control for 7 days in differentiation media before switching to mineralisation media for 7 days. On day 14 cells were processed for qPCR analysis as previously described.

[7] = test system: THP-1 derived macrophages; assay: LPS stimulated THP-1 derived macrophages: IL-1β ELISA of supernatant; format: cell-based, human; conditions: 100 nM, LPS 24 hrs
Protocol: THP-1 monocytes were differentiated into macrophages via treatment with 50 ng/ml phorbol 12-myristate 13-acetate (PMA) in THP-1 growth media (RPMI-1640, 100 μg/ml Primocin, 10% FBS, 0.05 mM β-mercaptoethanol) for 48 hours. Macrophages were then washed twice to remove PMA containing media before a 1-hour pretreatment with 1 μM BI1347 or 100 nM MSC2530818. Inflammatory stimulation was then initiated via the addition of lug/ml lipopolysaccharide (LPS) for 24 hours in the presence of 1 μM BI1347 or 100 nM MSC2530818. Gene expression analysis was subsequently carried out as previously outlined. For MSC2530818 treated/LPS stimulated cells, media supernatant was used for IL-1β cytokine analysis quantification via ELISA (PeproTech, ABTS Human IL-1β development ELISA) as per manufacturer instructions.

Row | SMILES | Glycosaminoglycan (GAG) deposition (leached alcian blue absorbances) vs DMSO (ATDC5 micromasses [1]) | Mineralization (leached alizarin red absorbances) vs DMSO (ATDC5 micromasses [1]) | alcian blue staining (GAG deposition) (ATDC5 micromass [2]) | micromass morphology (ATDC5 micromass [3]; 14 days, vs DMSO) | COL2A1 expression, increase vs DMSO (ATDC5 micromass [3]; day 7) | Mediator complex gene expression vs DMSO (ATDC5 micromass [3]; day 7) | ACAN expression, increase vs DMSO (ATDC5 micromass [3]; day 7 (N.S)) | ACAN expression, increase vs DMSO (ATDC5 micromass [3]; day 14) | COL10A1 expression, decrease vs DMSO (ATDC5 micromass [3]; day 14) | mineralisation by alizarin red stain vs DMSO ([4]; 1 μM, over 14 days culture) | changes in GAG deposition [5] | gene expression of OA protective genes (TIMP4, MATN3, SMOC2, CNMD) (ATDC5 micromasses [6]) | gene expression of hypertrophic/mineralised matrix marker IBSP (ATDC5 micromasses [6]) | dose response in gene expression: efficacy down to (ATDC5 micromasses [6]) | IL1β production / secretion into culture media, reduction [7] | mineralisation by alizarin red stain vs DMSO ([4]; 100 nM, 14 days (AA day 0-7, AA + 2 mM BGP day 7-14)) | mineralisation by alizarin red stain vs DMSO ([4]; 100 nM, 14 days (AA day 0-7, AA + 2 mM BGP day 7-14), listed as MSC)
1 | CN(C)C(=O)Cn1cc(-c2ccc(-c3cncc4ccccc34)cc2)cn1 [BI1347] | increase in GAG deposition | decrease in mineralisation | maintained | visible increase in extracellular matrix production; also recorded: visibly larger, more rounded and resembled the appearance of healthy cartilage | 4.7 fold | robustly downregulated; also recorded: overall reduction | 6 fold | 6 fold | 5.3 fold | completely inhibited mineralisation; also recorded: reduced mineralisation | not seen | dose dependent increase | dose dependent decrease | 10 nM | – | – | –
2 | Cc1n[nH]c2ncc(C(=O)N3CCC[C@H]3c3ccc(Cl)cc3)cc12 [MSC2530818] | increase in GAG deposition | decrease in mineralisation | maintained | – | – | – | – | – | – | – | not seen | dose dependent increase | dose dependent decrease | 10 nM | 1.5 fold | mineralisation was ablated | ablation of mineralization

Reference: patent US20250312320A1, “METHOD AND TREATMENT FOR OSTEOARTHRITIS AND DISEASES OF CHONDROCYTE HYPERTROPHY” (The Royal Veterinary College, priority 2022, published 2025)
